Measurements published in patent US20050256034A1, “Dioxolane analogs for improved inter-cellular delivery” (priority 2000, published 2005).
pIC50: −log10 of the molar value. Read-outs that look alike come from different tables or passages of the source.

How the values were obtained:
Assay type in all cases: cell-based
MCF-7 = assay: MTT assay at 72 hr; conditions: Homo sapiens, MCF7, read-out: IC50 (MTT at 72 hr) MCF-7, 24 h exposure, single experiments
[1] = 3H-Thymidine Incorporation Assay (24 hr drug, wash, another 48 hr; 72 hr assay); conditions: 24 hr exposure to drug, wash, another 48 hr
CCRF-CEM = assay: MMT or WST-1 assay at 72 hr; conditions: Homo sapiens, read-out: IC50 (MMT or WST-1 at 72 hr) CCRF-CEM, 24 h exposure, single experiments
CEM/dCK- = assay: MMT or WST-1 assay at 72 hr
SF-268 = assay: MTT assay at 72 hr; conditions: Homo sapiens, SF-268, read-out: IC50 (MTT at 72 hr) SF-268, 24 h exposure, single experiments
H-460 = assay: MTT assay at 72 hr; conditions: Homo sapiens, NCI-H460, read-out: IC50 (MTT at 72 hr) H-460, 24 h exposure, single experiments

pIC50 (MCF-7): 7.70
pIC50 ([1]; CCRF-CEM, read-out: IC50 (3H-TdR incorporation at 72 hr) CCRF-CEM 24 h, CCRF-CEM T-cell leukemia): 8.43
pIC50 ([1]; CCRF-CEM, read-out: IC50 (3H-TdR incorporation at 72 hr) CEM/dCK- 24 h, CEM/dCK- (CCRF-CEM deoxycytidine kinase-deficient)): 5.24
pIC50 ([1]; NCI-H460, read-out: IC50 (3H-TdR incorporation at 72 hr) H-460 24 h, H-460 human lung carcinoma): 9.28
pIC50 ([1]; read-out: IC50 (3H-TdR incorporation at 72 hr) CCRF-CEM 24 h, CCRF-CEM T-cell leukemia): 8.72
pIC50 ([1]; read-out: IC50 (3H-TdR incorporation at 72 hr) CEM/dCK- 24 h, CEM/dCK- (CCRF-CEM deoxycytidine kinase-deficient)): 5.35
pIC50 ([1]; read-out: IC50 (3H-TdR incorporation at 72 hr) H-460 24 h, H-460 human lung carcinoma): 9.42
pIC50 (CCRF-CEM): 8.00
Structure (SMILES): Nc1ccn([C@@H]2CO[C@H](COC(=O)C34CCC[C@@H]5C[C@@H]3C[C@H]5C4)O2)c(=O)n1 [Compound 232, HEXAHYDRO-2,5-METHANO-PENTA- LENE-3A-CARBOXYLIC ACID 4-(4-AMINO-2-OXO-2H-PYRIMI- DIN-1-YL)-[1,3]DI- OXOLAN-2-YL METHYL ESTER]
Resistance Factor (CEM/dCK-; CEM/dCK- versus CCRF-CEM): 210
pIC50 (CEM/dCK-; read-out: IC50 (MMT or WST-1 at 72 hr) CEM/dCK-, 24 h exposure, single experiments): 5.68
pIC50 (SF-268): 6.80
pIC50 (H-460): 8.16
